In patent publication US12582706B2, “Tolerogenic antigen presenting cells” (Cell4Cure AB, priority 2019, dated 2026):

Tests used:
CD4^+ T cells [1] = assay: Capacity of DCs to induce CD25^hiFoxp3^+ Tregs in time-extended MLR; assay type: cell-based, human; conditions: Example 13, FIG. 13(H); compared to control DCs
Description: (§1) CD14^+ monocytes were cultured at 1.25×10^6 cells/mi for 7 days in GMP DC Medium (CellGenix, Freiburg, Germany) containing HEPES, GlutaMAX and Penicillin-Streptomycin solution (Thermo Fisher, Waltham, MA) in the presence of granulocyte-macrophage colony-stimulating factor (GM-CSF; 100 ng/ml; PeproTech, London, UK) and interleukin-4 (IL-4; 100 ng/ml; PeproTech). Cells were replenished on day 3 with fresh medium and cytokines. Control DCs were differentiated in GM-CSF and IL-4 without addition of any further compounds and optionally further were treated with lipopolysaccharide (LPS; 0.5 ug/ml; Sigma-Aldrich, Saint Louise, MO) or a pro-inflammatory cytokine cocktail consisting of TNFalpha (10 ng/ml; PeproTech), IL-1 beta (10 ng/ml; PeproTech), and prostaglandin E2 (PGE2; 1 ug/ml; Sigma) on day 6 to generate stimulated immunogenic DCs. Tolerogenic DCs (tolDCs) were generated by treatment with various tolerogenic compounds: AhR agonist “C1” (C1; 20 nM; IMA-06201; Immunahr A B, Lund, Sweden) on days 0 and 3, TGFbeta1 (10 or 20 ng/ml; PeproTech) on day 3, and retinoic acid (2 uM; Sigma-Aldrich) on day 6. Control tolDC for comparison were established by treatment with Dexamethasone (Dex; 100 nM; Sigma-Aldrich) and Vitamin D3 (VitD3; 100 nM, StemCell Technologies) on day 3. Phenotypic stability of TolDCs was investigated by addition of LPS (0.5 ug/ml) or a pro-inflammatory cytokine cocktail consisting of TNFalpha (10 ng/ml), IL-1beta (10 ng/ml), PGE2 (1 ug/ml), and for Example 24 also IL-6 (10 ng/ml), for the last 24 hours of culture. On day 7, DCs were harvested and washed extensively before phenotyping and functional assays were performed.
In order to analyse the T cell stimulatory capacity of the generated DC populations, allogeneic MLRs were performed. DC/T cell cultures were carried out in complete medium: RPMI-1640 (Thermo Fisher) containing fetal bovine serum (FBS; 10%; Thermo Fisher), HEPES, GlutaMAX and Penicillin-Streptomycin solution. […] Proliferation was determined by incorporation of ^3H-thymidine for the last 18 hours of culture. […]

CD4^+ T cells [2] = assay: Capacity of DCs to induce T cell proliferation in allogeneic MLR (3H-thymidine); assay type: cell-based, human; conditions: for induction of T cell proliferation (CPM): Example 13, FIG. 13(G), compared to control DCs
Description: as §1
In order to analyse the T cell stimulatory capacity of the generated DC populations, allogeneic MLRs were performed. DC/T cell cultures were carried out in complete medium: RPMI-1640 (Thermo Fisher) containing fetal bovine serum (FBS; 10%; Thermo Fisher), HEPES, GlutaMAX and Penicillin-Streptomycin solution. T cells (10^5 cells/well) were cultured with DCs at a T cell: DC ratio of 10:1 for 5-7 days. Proliferation was determined by incorporation of ^3H-thymidine for the last 18 hours of culture. For determination of CD4^+CD49b^+LAG3^+ Tr1 cells, cells were phenotyped as described below. For determination of CD25^hiFoxp3^+ Treg induction, the T cells from the MLR cultures were rested for additionally 7 days in complete medium containing IL-2 (20 IU/ml; PeproTech) and then subjected to phenotyping as described below.
Control DCs were differentiated from CD14^+ monocytes by culturing in GM-CSF and IL-4 for 7 days. Control DCs were either unstimulated or stimulated with LPS which was added on day 6 to generate immunogenic control DCs. […] TolDCs for comparison were established by treatment with Dex at 100 nM and VitD3 at 100 nM on day 3. On day 6, some of the DCs were treated with LPS (FIG. 5 (A); black bars) or a pro-inflammatory cytokine cocktail consisting of TNFalpha, IL-1beta and PGE2 (FIG. 5 (B); black bars) to test for phenotypical stability under various conditions. All cells were harvested on day 7 and cocultures with CD4^+ T cells were setup in an MLR setting at a T cell:DC ratio of 10:1. At the end of the 7-day cultures, proliferation of T cells was determined by ^3H-thymidine incorporation.
Various compounds were tested for their capacity to induce a tolerogenic phenotype in DCs. […] AhR agonist C1 (AhR ag) at 10 nM on days 0 and 3, TGFbeta at 10 ng/ml on day 3, and RA at 2 uM on day 6. […]

Compound	induction of Tregs (CD4^+CD25^+Foxp3^+) (CD4^+ T cells [1])	induction of T cell proliferation (CPM) (CD4^+ T cells [2])	effect on the tolerogenic effect of RA (CD4^+ T cells [2]; Example 13, summary)
CC1=C(/C=C/C(C)=C/C=C/C(C)=C/C(=O)O)C(C)(C)CCC1 [RA, all-trans retinoic acid]	more Tregs	less T cell proliferation	
CCN(C(=O)c1c(O)c2c(Cl)cccc2n(C)c1=O)c1ccccc1 [AhR agonist, N-ethyl-N-phenyl-5-chloro-1,2-dihydro-4-hydroxy-1-methyl-2-oxo-quinoline-3-carboxamide]	slightly more Tregs	slightly more T cell proliferation	strengthens the tolerogenic effect of RA
